The text below walks through data of ChEMBL document CHEMBL4043217, “A prodrug design for improved oral absorption and reduced hepatic interaction” (Bioorg Med Chem, 2017).

Each structure is given as a SMILES string. pEC50, pIC50: −log10 of the molar value. Active and inactive are the calls of the source. No cut-off for these calls is given here.

In data set [1] the test system is Rattus norvegicus. As to the kind of experiment: Estrogenic effect in ovariectomized adult female Wistar rat assessed as uterine weight level at 10 ug, po dosed from day 1 to 3 and measured on day 4 relative to untreated control. Format: functional.
Another data set addresses Carbonic anhydrase 2 (Homo sapiens, UniProt P00918).
A short description of data set [2]: Prodrug conversion in human plasma assessed as esterase-mediated estradiol release by measuring saponification level after 10 mins by ELISA method. Format: ADME. The note with it: isolated protein. Background: In an ELISA, binding on a coated surface is turned into a signal by an enzyme label.
Data set [3] deals with Rattus norvegicus. As to the kind of experiment: Estrogenic effect in ovariectomized adult female Wistar rat assessed as uterine weight level at 1 ug, po dosed from day 1 to 3 and measured on day 4 relative to untreated control. The format is functional.
The subject of data set [4] is Rattus norvegicus. As to the kind of experiment: Estrogenic effect in ovariectomized adult female Wistar rat assessed as uterine weight level at 3 ug, po dosed from day 1 to 3 and measured on day 4 relative to untreated control. Format: functional.
Data set [5] deals with Rattus norvegicus. As to the kind of experiment: AUC (0 to 3 hrs) in rat at 3 mg, po. Format: ADME. Details: time < 3 hr, dose 3 mg, route oral. The note with it: in vivo.
For data set [6], the system named is Rattus norvegicus. As to the kind of experiment: Increase in testosterone level in orally dosed male rat serum relative to testosterone-propionate. The format is functional, organism-based.
The nature of data set [7]: Clearance in Sprague-Dawley rat blood at 1 mg/kg, iv. The format is ADME, organism-based.
A short description of data set [8]: Volume of distribution in Sprague-Dawley rat blood at 1 mg/kg, iv. The format is ADME, organism-based.
A short description of data set [9]: Half life in Sprague-Dawley rat blood at 5 mg/kg, po. The format is ADME, organism-based.
In the next data set the target is T1, Estrogen receptor (Homo sapiens, UniProt P03372).
T1 sequence (P03372 whole entry): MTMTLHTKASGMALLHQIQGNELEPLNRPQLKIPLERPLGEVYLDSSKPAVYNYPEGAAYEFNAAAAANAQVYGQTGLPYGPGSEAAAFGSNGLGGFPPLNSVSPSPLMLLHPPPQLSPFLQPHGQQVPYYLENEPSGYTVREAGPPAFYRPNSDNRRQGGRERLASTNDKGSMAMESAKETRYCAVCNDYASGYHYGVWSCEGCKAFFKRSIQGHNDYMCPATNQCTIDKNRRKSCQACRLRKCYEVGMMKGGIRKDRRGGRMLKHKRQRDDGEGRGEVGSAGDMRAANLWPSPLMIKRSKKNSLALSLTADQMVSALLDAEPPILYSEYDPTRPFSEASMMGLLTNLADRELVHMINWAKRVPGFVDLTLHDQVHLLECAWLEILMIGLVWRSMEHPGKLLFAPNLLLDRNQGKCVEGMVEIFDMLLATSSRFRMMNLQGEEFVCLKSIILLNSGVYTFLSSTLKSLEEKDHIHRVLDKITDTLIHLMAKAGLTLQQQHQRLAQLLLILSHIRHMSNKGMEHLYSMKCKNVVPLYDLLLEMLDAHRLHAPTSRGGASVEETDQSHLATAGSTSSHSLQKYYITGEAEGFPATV
As to the kind of experiment: Binding affinity to ER (unknown origin) expressed in UAS-bla GripTite 293 cells by Select screen competitive binding assay. The format is cell-based.

Data set [10] is described as follows: Clearance in Sprague-Dawley rat plasma at 1 mg/kg, iv. Format: ADME, organism-based.
Data set [11] is described as follows: Volume of distribution in Sprague-Dawley rat plasma at 1 mg/kg, iv. The format is ADME, organism-based.
Data set [12] in a line: Half life in Sprague-Dawley rat plasma at 5 mg/kg, po. The format is ADME, organism-based.
Data set [13] is described as follows: Oral bioavailability life in Sprague-Dawley rat plasma at 5 mg/kg. Format: ADME, organism-based.
Data set [14] is described as follows: Oral bioavailability life in Sprague-Dawley rat blood at 5 mg/kg. Format: ADME, organism-based.

Description for Carbonic anhydrase 2: Inhibition of human CA2 catalytic activity pre-incubated for 15 mins followed by 4-NPA substrate addition and measured every 12 to 15 secs for 5 mins by spectrophotometry

Regarding `Cc1cc(C(=O)N2CCC[C@H]2C(=O)O[C@H]2CC[C@H]3[C@@H]4CCc5cc(O)ccc5[C@H]4CC[C@]23C)ccc1S(N)(=O)=O`, the Activity in the data set on Rattus norvegicus [1] came to 258%. On Carbonic anhydrase 2, the pIC50 (usually −log10 of the IC50, conventionally taken in molar units) is 6.68.
On to `C[C@]12CC[C@@H]3c4ccc(O)cc4CC[C@H]3[C@@H]1CC[C@@H]2OC(=O)[C@H](Cc1ccccc1)NC(=O)c1ccc(S(N)(=O)=O)cc1`, for which the Drug metabolism in data set [2] was 75%. Also, the values for the Activity in the data set with Rattus norvegicus [3] and in the data set with Rattus norvegicus [1] were 95% and 117%, respectively. This molecule gave a pIC50 at Carbonic anhydrase 2 of 7.00.
With `C[C@]12CC[C@@H]3c4ccc(O)cc4CC[C@H]3[C@@H]1CC[C@@H]2OC(=O)CNC(=O)c1ccc(S(N)(=O)=O)cc1`, the Drug metabolism in data set [2] is 87%. The molecule also had a pIC50 on Carbonic anhydrase 2 of 7.19.
Consider `C[C@]12CC[C@@H]3c4ccc(O)cc4CC[C@H]3[C@@H]1CC[C@@H]2OC(=O)[C@@H]1CCCN1C(=O)Cc1ccc(S(N)(=O)=O)cc1`, for which the Activity with Rattus norvegicus [1] turned out to be 267%. At Carbonic anhydrase 2, the pIC50 is 6.30.
For `C[C@]12CC[C@@H]3c4ccc(O)cc4CC[C@H]3[C@@H]1CC[C@@H]2OC(=O)[C@@H]1CCCN1C(=O)c1coc(S(N)(=O)=O)c1`, the Activity in the data set on Rattus norvegicus [1] was 313%. Also, at Carbonic anhydrase 2, the pIC50 was 8.15.
As for `CC(C)[C@H](NC(=O)c1ccc(S(N)(=O)=O)cc1)C(=O)O[C@H]1CC[C@H]2[C@@H]3CCc4cc(O)ccc4[C@H]3CC[C@]12C`, in data set [2], the Drug metabolism was determined as 89%. Moreover, the figures for the Activity in the data set with Rattus norvegicus [3] and in the data set on Rattus norvegicus [1] were 105% and 267%, respectively. For the same molecule, the pIC50 against Carbonic anhydrase 2 was 6.69.
In turn, `C[C@]12CC[C@@H]3c4ccc(O)cc4CC[C@H]3[C@@H]1CC[C@@H]2OC(=O)[C@@H]1CCCN1C(=O)c1cccc(S(N)(=O)=O)c1` gave a pIC50 on Carbonic anhydrase 2 of 6.52.
For the molecule `C[C@]12CC[C@@H]3c4ccc(O)cc4CC[C@H]3[C@@H]1CC[C@@H]2OC(=O)[C@@H]1CCCN1C(=O)c1ccc(S(N)(=O)=O)cn1`, the Activity in the data set on Rattus norvegicus [1] was determined as 268%. The molecule also gave a pIC50 on Carbonic anhydrase 2 of 5.30.
On the same counts, the results for `C[C@]12CC[C@@H]3c4ccc(O)cc4CC[C@H]3[C@@H]1CC[C@@H]2OC(=O)[C@@H]1CCCN1C(=O)c1ccc(S(N)(=O)=O)o1` are 318% and 6.60.
On the same counts, the results for `C[C@]12CC[C@@H]3c4ccc(O)cc4CC[C@H]3[C@@H]1CC[C@@H]2OC(=O)[C@@H]1CCCN1C(=O)c1ccc(S(N)(=O)=O)nc1` are 259% and 6.60.
On to `C[C@@H](C(=O)O[C@H]1CC[C@H]2[C@@H]3CCc4cc(O)ccc4[C@H]3CC[C@]12C)N(C)C(=O)c1ccc(S(N)(=O)=O)cc1`, for which, in data set [2], the Drug metabolism was found to be 84%. Further, the figures for the Activity with Rattus norvegicus [3] and in the data set on Rattus norvegicus [1] were 145% and 289%, respectively. On Carbonic anhydrase 2, this molecule showed a pIC50 of 6.49.
As to `C[C@]12CC[C@@H]3c4ccc(O)cc4CC[C@H]3[C@@H]1CC[C@@H]2OC(=O)[C@@H]1CCCN1Cc1ccc(S(N)(=O)=O)cc1`, the Activity with Rattus norvegicus [1] worked out at 272%. This molecule also showed a pIC50 on Carbonic anhydrase 2 of 6.89.
Turning to `C[C@]12CC[C@@H]3c4ccc(O)cc4CC[C@H]3[C@@H]1CC[C@@H]2OC(=O)[C@@H]1CCCN1C(=O)c1cccc(-c2cccc(S(N)(=O)=O)c2)c1`, the Activity in the data set with Rattus norvegicus [1] worked out at 216%. On Carbonic anhydrase 2, this molecule had a negative-log IC50 (pIC50) of 5.00.
With `C[C@H](NC(=O)c1ccc(S(N)(=O)=O)cc1)C(=O)O[C@H]1CC[C@H]2[C@@H]3CCc4cc(O)ccc4[C@H]3CC[C@]12C`, the Drug metabolism in [2] is listed as 70%. The Activity in the data set on Rattus norvegicus [4] is listed as 163%. Besides, the pIC50 against Carbonic anhydrase 2 was 6.60.
In the case of `C[C@]12CC[C@@H]3c4ccc(O)cc4CC[C@H]3[C@@H]1CC[C@@H]2OC(=O)[C@@H]1CCCN1c1ccc(S(N)(=O)=O)cc1`, the Activity in the data set with Rattus norvegicus [1] came to 92%. The same molecule showed a pIC50 against Carbonic anhydrase 2 of 6.70.
For `C[C@]12CC[C@@H]3c4ccc(O)cc4CC[C@H]3[C@@H]1CC[C@@H]2OC(=O)[C@@H]1CCCN1S(N)(=O)=O`, in that order: 268% and 5.00.
As to `C[C@]12CC[C@H]3[C@@H](CCC4=CC(=O)CC[C@@]43C)[C@@H]1CC[C@@H]2OC(=O)[C@@H]1CCCN1C(=O)c1ccc(S(N)(=O)=O)cn1`, the AUC in the data set on Rattus norvegicus [5] came out at 330 ng/mL. The outcome with Rattus norvegicus [6] was Active.
Consider `C[C@]12CC[C@@H]3c4ccc(O)cc4CC[C@H]3[C@@H]1CC[C@@H]2OC(=O)[C@@H]1CCCN1C(=O)c1cccc(-c2ccc(S(N)(=O)=O)cc2)c1`, for which the Activity with Rattus norvegicus [1] was 153%. On Carbonic anhydrase 2, this molecule gave a pIC50 of 6.92.
For `C[C@]12CC[C@@H]3c4ccc(O)cc4CC[C@H]3[C@@H]1CC[C@@H]2OC(=O)[C@@H]1CCCN1C(=O)c1ccc(-c2ccc(S(N)(=O)=O)cc2)cc1`, in that order: 309% and 6.54.
Consider `C[C@]12CC[C@@H]3c4ccc(O)cc4CC[C@H]3[C@@H]1CC[C@@H]2OC(=O)[C@@H]1CCCN1C(=O)c1ccc(S(N)(=O)=O)cc1`, for which the clearance – broadly, the volume of plasma or blood freed of the substance per unit of time – in data set [7] worked out at 0.232 L/h/kg; in data set [10], 3.77 L/h/kg. Further, the values for the Vd in [8] and in data set [11] were 0.24 L/kg and 5.68 L/kg, respectively. Moreover, the results for the half-life in [9] and in data set [12] were 4.9 h and 4.58 h, respectively. In addition, in the data set with Rattus norvegicus [3], the Activity was determined as 244%. For the same molecule, at Estrogen receptor, the pEC50 – broadly, the negative decadic logarithm of the EC50, by convention in mol/L – was 6.36. The results for the bioavailability in [13] and in data set [14] were 102% and 122%, respectively.
As for `CC(C)(NC(=O)c1ccc(S(N)(=O)=O)cc1)C(=O)O[C@H]1CC[C@H]2[C@@H]3CCc4cc(O)ccc4[C@H]3CC[C@]12C`, the Drug metabolism in [2] is given as 97%. The Activity stood at 107% in the data set on Rattus norvegicus [3] and 97% in the data set with Rattus norvegicus [1]. Moreover, the pIC50 against Carbonic anhydrase 2 is 6.63.
